Target: Ubiquitin carboxyl-terminal hydrolase 7 (Homo sapiens, UniProt Q93009)
Experiment: Biochemical Assay: Dilution plates were prepared at 21 times the final concentration (2100 μM for a final concentration of 100 μM) in 50% DMSO in a 96-well polypropylene V-bottom plate (Greiner #651201). A typical 8-point dilution series would be 100, 30, 10, 3, 1, 0.3, 0.1, 0.03 μM final. Reactions were performed in duplicate in black 384 well plates (small volume, Greiner 784076) in a final reaction volume of 21 μl. Either 1 μl of 50% DMSO or diluted compound was added to the plate. USP7 was diluted in reaction buffer (20 mM Tris, pH 7.5, 100 mM NaCl, 0.05% Tween 20, 0.5 mg/ml BSA, 5 mM—beta mercaptoethanol) to the equivalent of 0.0025 μl/well and 10 μl of diluted USP7 was added to the compound. Enzyme and compound were incubated for 30 min at room temp. Reactions were initiated by the addition of 50 nM of TAMRA labelled peptide linked to ubiquitin via an iso-peptide bond as fluorescence polarisation substrate. Reactions were read immediately after addition of substrate and following a 2 hr incubation at room temperature. Readings were performed on a Pherastar Plus (BMG Labtech). λ Excitation 540 nm; λ Emission 590 nm.

Sequence of Ubiquitin carboxyl-terminal hydrolase 7 (Q93009 whole entry): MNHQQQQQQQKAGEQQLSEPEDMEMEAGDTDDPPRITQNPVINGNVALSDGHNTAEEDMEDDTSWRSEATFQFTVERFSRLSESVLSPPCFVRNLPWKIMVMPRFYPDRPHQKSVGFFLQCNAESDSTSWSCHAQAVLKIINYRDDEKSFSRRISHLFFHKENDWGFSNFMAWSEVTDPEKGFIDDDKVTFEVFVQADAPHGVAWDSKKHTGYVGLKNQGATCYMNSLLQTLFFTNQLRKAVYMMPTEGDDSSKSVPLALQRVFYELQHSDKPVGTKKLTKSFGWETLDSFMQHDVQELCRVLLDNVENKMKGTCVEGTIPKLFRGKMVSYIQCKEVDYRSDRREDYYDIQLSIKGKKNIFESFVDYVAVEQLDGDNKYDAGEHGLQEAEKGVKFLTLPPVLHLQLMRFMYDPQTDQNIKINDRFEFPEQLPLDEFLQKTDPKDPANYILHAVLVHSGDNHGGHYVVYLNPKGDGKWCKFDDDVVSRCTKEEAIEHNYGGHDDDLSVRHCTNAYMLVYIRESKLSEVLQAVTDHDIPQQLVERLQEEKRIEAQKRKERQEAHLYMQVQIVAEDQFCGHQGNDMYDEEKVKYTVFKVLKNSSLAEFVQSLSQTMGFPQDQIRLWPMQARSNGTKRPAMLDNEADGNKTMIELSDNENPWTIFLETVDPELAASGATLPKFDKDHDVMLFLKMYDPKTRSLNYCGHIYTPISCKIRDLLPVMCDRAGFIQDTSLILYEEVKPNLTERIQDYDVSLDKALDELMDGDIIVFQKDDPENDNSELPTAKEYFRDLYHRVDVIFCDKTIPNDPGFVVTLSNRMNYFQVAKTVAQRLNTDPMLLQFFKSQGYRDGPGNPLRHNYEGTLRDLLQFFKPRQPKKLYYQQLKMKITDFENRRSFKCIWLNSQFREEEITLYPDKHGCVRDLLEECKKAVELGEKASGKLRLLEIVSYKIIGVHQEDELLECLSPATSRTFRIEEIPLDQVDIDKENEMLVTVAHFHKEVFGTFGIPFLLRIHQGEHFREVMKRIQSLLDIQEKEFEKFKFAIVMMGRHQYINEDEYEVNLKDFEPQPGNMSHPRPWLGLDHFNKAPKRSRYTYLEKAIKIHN

| SMILES | IC50 |
| --- | --- |
| N#CN1Cc2[nH]nc(-c3cccc(N4CCCC4=O)c3)c2C1 | < 10 µM |
| N#CN1Cc2[nH]nc(-c3cccc(N4CCOC4=O)c3)c2C1 | < 10 µM |

Source: ChEMBL document CHEMBL5729069, “4,6 dihydropyrrolo [3,4-C] pyrazole-5 (1H)-carbonitrile derivates for treating cancer” (2022)
